Laboratory results taken from patent publication US6462017B1, “Method of reducing side effects of chemotherapy in cancer patients” (SciClone Pharmaceuticals, Inc., priority 2000, dated 2002).
Where no end group is shown, it is not given here.

Experiments:
[1] = test system: cancer patients (lung, gastric, breast cancer) receiving chemotherapy; test: Quality of life scored scale, randomized crossover open label trial of chemotherapy cycles with and without Tα1; type: in vivo, humans
Experimental: (§1) Method: A randomized crossover open label trial was performed. A total of sixty patients, twenty with lung cancer, twenty with gastric cancer and twenty with breast cancer were studied during two complete cycles of chemotherapy. All patients were randomized into two groups. In group 1, patients received chemotherapy with thymosin α1 in the first cycle, and without thymosin α1 in the second cycle. While patients in group 2 received chemotherapy without thymosin α1 in the first cycle, and with thymosin α1 in the second cycle. The patients were treated as follows:
(§2) Twenty lung cancer patients were treated with 100 mg of Etoposide IV on days 1-5 and 40 mg of Cisplatin I.V. on days 1-3 in a 21 day cycle.
(§3) Twenty gastric cancer patients were treated with 100 mg of Etoposide IV on days 1-5, 30 mg/m^2 Calcium Leucovorin I.V. on days 1-5 and 500 mg/m^2 5-Fluorouricil (5-FU) I.V. on days 1-5.
(§4) Twenty breast cancer patients were treated with 5-Fluorouricil 500 mg/m^2, Adriamycin I.V. 30 mg/m^2 I.V. on day 1 and cyclophosphamide 500 mg/m^2 I.V. on day 1.
(§5) A mild anti-emetic consisting of 20 mg metoclopamide, I.M. and 5 mg Dexamethasone I.V. were given to all patients on days 1-5. All subjects on thymosin received six injections of 1.6 mg s.c. Tα1 on each of the four days immediately preceding the chemotherapy and on days two and four following chemotherapy. All patients who have completed the two cycles of chemotherapy, then were reallocated into two cohorts, A and B. Cohort A are patients with Tα1, and Cohort B are patients without Tα1.
Analysis: Quality of life was analyzed using a scored scale for (1) loss of appetite, (2) loss of sleep, (3) fatigue, (4) reduction in daily activity, (5) decline in overall feeling, (6) depression and (7) nausea and vomiting. Maximum total score was 35 points.

[2] = test system: cancer patients (lung, gastric, breast cancer) receiving chemotherapy; test: Nausea and vomiting classified according to WHO criteria, same trial; type: in vivo, humans; settings: Cohort A with Tα1, n 54, P < 0.0005
Experimental: as §1, §2, §3, §4, §5

cancer patients = test: Side effects of thymosin α1 administration; type: in vivo, humans; settings: administration in conjunction with antineoplastics
VIP receptor = settings: in vitro; cited from earlier work

Substance: thymosin α1 (SDAAVDTSSEITTKDLKEKKEVVEEAEN; not fully specified; ends and bridges not checked; UniProt P06454 2-29, looked up) [Tα1, acidic polypeptide isolated from thymosin fraction 5, an immunomodulator that acts primarily by enhancing T-cell function]
- Effect on quality of life scores ([1]; addition of Tα1 to chemotherapy cycles compared with cycles without Tα1): significantly increases the quality of life scores
- Fatigue, quality of life score ([1]; cycles with Tα1 (1.6 mg s.c., six injections) vs. cycles without Tα1 3.70, p = 0.0001): 4.05 vs. 3.70 p = 0.0001
- Depression, quality of life score ([1]; cycles with Tα1 (1.6 mg s.c., six injections) vs. cycles without Tα1 3.72, p = 0.003): 4.01 vs. 3.72 p = 0.003
- Reduction in Daily Activity, quality of life score ([1]; cycles with Tα1 (1.6 mg s.c., six injections) vs. cycles without Tα1 3.84, p = 0.0001): 4.12 vs. 3.84 p = 0.0001
- Nausea and Vomiting, quality of life score ([1]; cycles with Tα1 (1.6 mg s.c., six injections) vs. cycles without Tα1 3.93, p = 0.001): 4.29 vs. 3.93 p = 0.001
- Decline in Overall Feeling, quality of life score ([1]; cycles with Tα1 (1.6 mg s.c., six injections) vs. cycles without Tα1 3.94, p = 0.0001): 4.32 vs. 3.94 p = 0.0001
- Loss of Appetite, quality of life score ([1]; cycles with Tα1 (1.6 mg s.c., six injections) vs. cycles without Tα1 3.99, p = 0.0001): 4.33 vs. 3.99 p = 0.0001
- Loss of Sleep, quality of life score ([1]; cycles with Tα1 (1.6 mg s.c., six injections) vs. cycles without Tα1 4.10, p = 0.002): 4.41 vs. 4.10 p = 0.002
- Nausea and vomiting WHO Gr. 4, number of patients ([2]; without Tα1 0): 0
- Nausea and vomiting WHO Grade 0, number of patients ([2]; without Tα1 4/53): 7/55
- Nausea and vomiting WHO Gr. 3, number of patients ([2]; without Tα1 11): 1
- Nausea and vomiting WHO Gr. 1, number of patients ([2]; without Tα1 19): 33
- Nausea and vomiting WHO Gr. 2, number of patients ([2]; without Tα1 19): 13
- Side effects of thymosin α1 (cancer patients): does not appear to result in any side effects
- VIP receptor binding (VIP receptor): has a VIP receptor binding effect
